From ChEMBL document CHEMBL1158933, “A new polyhalogenated monoterpene from the red alga Plocamium cartilagineum” (J Nat Prod, 1990)
Active and inactive are the calls of the source. The calls are words filed in the database; no cut-off is given here.

How the values were obtained:
[1] = system: Bacillus subtilis; assay: Antibacterial activity against Bacillus subtilis ATCC 6633 up to 24 ug by bioautographic test; format: functional, organism-based
[2] = Toxicity against Artemia salina assessed as mortality at 120 ug/ml; format: organism-based; conditions: in vivo, read-out: Activity
[3] = Toxicity against Artemia salina assessed as mortality at 12 ug/ml; format: organism-based; conditions: in vivo, read-out: Activity
[4] = system: Escherichia coli; assay: Antibacterial activity against Escherichia coli ATCC 25922 up to 24 ug by bioautographic test; format: functional, organism-based
[5] = system: Micrococcus luteus; assay: Antibacterial activity against Micrococcus luteus ATCC 9341 up to 24 ug by bioautographic test; format: functional, organism-based
[6] = system: Penicillium oxalicum; assay: Antifungal activity against Penicillium oxalicum CBS 219.30 by bioautographic test; format: functional
[7] = system: Biomphalaria glabrata; assay: Molluscicidal activity in Biomphalaria glabrata assessed as mortality at 5 ppm; format: functional
[8] = system: Biomphalaria glabrata; assay: Molluscicidal activity in Biomphalaria glabrata assessed as mortality at 6 ppm; format: functional, organism-based
[9] = system: Artemia salina; assay: Toxicity against Artemia salina assessed as mortality; format: organism-based; conditions: in vivo
[10] = Toxicity against Artemia salina assessed as mortality at 10 ug/ml; format: organism-based; conditions: in vivo, read-out: Activity
[11] = Toxicity against Artemia salina assessed as mortality at 100 ug/ml; format: organism-based; conditions: in vivo, read-out: Activity
[12] = system: Biomphalaria glabrata; assay: Molluscicidal activity in Biomphalaria glabrata assessed as mortality at 2.5 ppm; format: functional

Structure (SMILES) | Activity [1] | mortality at 120 ug/ml [2] [%] | mortality at 12 ug/ml [3] [%] | Activity [4] | Activity [5] | MIC [6] [µg] | Activity [7] [%] | Activity [8] | Activity [9] | mortality at 10 ug/ml [10] [%] | mortality at 100 ug/ml [11] [%] | Activity [12] [%]
C[C@]1(Cl)C[C@](C)(/C=C/Cl)[C@H](Br)C[C@@H]1Cl | inactive | 100 | 26 | inactive | inactive | 0.6 | 100 | – | – | – | – | –
C[C@@](Cl)(/C=C/Br)[C@@H](Cl)/C=C/C(Cl)(CCl)CBr (stereo partly specified) | inactive | – | – | inactive | inactive | 0.1 | – | inactive | Not Active | – | – | –
C=C(/C=C/[C@@H](Cl)[C@](C)(Cl)/C=C/Br)CCl (relative stereo) | inactive | – | – | inactive | inactive | 0.1 | – | inactive | Not Active | – | – | –
C[C@]1(Cl)C[C@](C)(Br)[C@@H](/C=C/Cl)C[C@H]1Br | inactive | – | – | inactive | inactive | 10 | – | – | – | 20 | 100 | 100
